Assay results published in PubChem BioAssay (NCI).
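Assay format: 96-well plates, 48-hour exposure. At the TGI there is no net growth.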

Columns and labels:
Assay in all cases: inhibition of tumour cell growth, NCI panel, 48 h
[1] = system: 786-0 renal
[2] = system: A549 NSCLC
[3] = system: CAKI-1 renal
[4] = system: HCT-15 colon
[5] = system: SF-295 CNS
[6] = system: SK-MEL-28 melanoma
[7] = system: HT29 colon
[8] = system: LOX IMVI melanoma
[9] = system: SNB-19 CNS
[10] = system: UACC-257 melanoma
[11] = system: OVCAR-4 ovarian
[12] = system: NCI/ADR-RES ovarian
[13] = system: NCI-H226 lung
[14] = system: TK-10 renal
[15] = system: SN12C renal
[16] = system: OVCAR-5 ovarian
[17] = system: UACC-62 melanoma
[18] = system: T-47D breast
[19] = system: BT-549 breast
[20] = system: UO-31 renal
[21] = system: OVCAR-3 ovarian
[22] = system: SW-620 colon
[23] = system: NCI-H23 lung
[24] = system: M14 melanoma
[25] = system: MALME-3M melanoma
[26] = system: K-562 leukemia
[27] = system: MDA-MB-231 breast
[28] = system: OVCAR-8 ovarian
[29] = system: DU-145 prostate
[30] = system: IGROV1 ovarian
[31] = system: EKVX NSCLC
[32] = system: RPMI-8226 leukemia
[33] = system: MDA-N
[34] = system: MOLT-4 leukemia
[35] = system: SK-MEL-2 melanoma
[36] = system: HL-60(TB) leukemia
[37] = system: SF-268 CNS
[38] = system: A498 renal
[39] = system: HOP-62 NSCLC
[40] = system: RXF 393 renal
[41] = system: U251 CNS
[42] = system: COLO 205 colon
[43] = system: ACHN renal
[44] = system: NCI-H522 lung
[45] = system: KM12 colon
[46] = system: CCRF-CEM leukemia
[47] = system: MDA-MB-435
[48] = system: PC-3 prostate
[49] = system: SK-MEL-5 melanoma
[50] = system: NCI-H460 lung
[51] = system: HCT-116 colon
[52] = system: HS 578T breast
[53] = system: MCF7 breast
[54] = system: SF-539 CNS
[55] = system: SNB-75 CNS
[56] = system: HCC-2998 colon
[57] = system: SK-OV-3 ovarian

## O=c1[nH]nc(Cc2ccccc2)n1/N=C/c1ccc(/C=N/n2c(Cc3ccccc3)n[nH]c2=O)cc1
[1]
  TGI: > 100 µM
[2]
  TGI: > 100 µM
[3]
  TGI: > 100 µM
[4]
  TGI: > 100 µM
[5]
  TGI: > 100 µM
[6]
  TGI: > 100 µM
[7]
  TGI: > 100 µM
[8]
  TGI: > 100 µM
[9]
  TGI: > 100 µM
[10]
  TGI: > 100 µM
[11]
  TGI: > 100 µM
[12]
  TGI: > 100 µM
[13]
  TGI: > 100 µM
[14]
  TGI: > 100 µM
[15]
  TGI: > 100 µM
[16]
  TGI: > 100 µM
[17]
  TGI: > 100 µM
[18]
  TGI: > 100 µM
[19]
  TGI: > 100 µM
[20]
  TGI: > 100 µM
[21]
  TGI: > 100 µM
[22]
  TGI: > 100 µM
[23]
  TGI: > 100 µM
[24]
  TGI: > 100 µM
[25]
  TGI: > 100 µM
[26]
  TGI: 50.5 µM
[27]
  TGI: > 100 µM
[28]
  TGI: > 100 µM
[29]
  TGI: > 100 µM
[30]
  TGI: > 100 µM
[31]
  TGI: > 100 µM
[32]
  TGI: > 100 µM
[33]
  TGI: > 100 µM
[34]
  TGI: 47 µM
[35]
  TGI: > 100 µM
[36]
  TGI: > 100 µM
[37]
  TGI: > 100 µM
[38]
  TGI: > 100 µM
[39]
  TGI: > 100 µM
[40]
  TGI: > 100 µM
[41]
  TGI: > 100 µM
[42]
  TGI: > 100 µM
[43]
  TGI: > 100 µM
[44]
  TGI: > 100 µM
[45]
  TGI: > 100 µM
[46]
  TGI: 50.7 µM
[47]
  TGI: > 100 µM
[48]
  TGI: > 100 µM
[49]
  TGI: > 100 µM
[50]
  TGI: > 100 µM
[51]
  TGI: > 100 µM
[52]
  TGI: > 100 µM
[53]
  TGI: > 100 µM

## CCOC(=O)c1nnsc1NC(=O)NN
[1]
  TGI: > 100 µM
[2]
  TGI: > 100 µM
[3]
  TGI: > 100 µM
[4]
  TGI: > 100 µM
[5]
  TGI: > 100 µM
[6]
  TGI: > 100 µM
[7]
  TGI: > 100 µM
[8]
  TGI: > 100 µM
[9]
  TGI: > 100 µM
[10]
  TGI: > 100 µM
[12]
  TGI: > 100 µM
[13]
  TGI: > 100 µM
[14]
  TGI: > 100 µM
[15]
  TGI: > 100 µM
[16]
  TGI: > 100 µM
[17]
  TGI: > 100 µM
[18]
  TGI: > 100 µM
[19]
  TGI: > 100 µM
[20]
  TGI: > 100 µM
[21]
  TGI: > 100 µM
[22]
  TGI: > 100 µM
[23]
  TGI: > 100 µM
[24]
  TGI: > 100 µM
[54]
  TGI: > 100 µM
[25]
  TGI: > 100 µM
[26]
  TGI: > 100 µM
[27]
  TGI: > 100 µM
[28]
  TGI: > 100 µM
[29]
  TGI: > 100 µM
[30]
  TGI: > 100 µM
[31]
  TGI: > 100 µM
[32]
  TGI: > 100 µM
[33]
  TGI: > 100 µM
[35]
  TGI: > 100 µM
[36]
  TGI: > 100 µM
[37]
  TGI: > 100 µM
[38]
  TGI: > 100 µM
[39]
  TGI: > 100 µM
[55]
  TGI: > 100 µM
[40]
  TGI: > 100 µM
[41]
  TGI: > 100 µM
[56]
  TGI: > 100 µM
[42]
  TGI: > 100 µM
[43]
  TGI: > 100 µM
[44]
  TGI: > 100 µM
[45]
  TGI: > 100 µM
[46]
  TGI: > 100 µM
[47]
  TGI: > 100 µM
[48]
  TGI: > 100 µM
[57]
  TGI: > 100 µM
[49]
  TGI: > 100 µM
[50]
  TGI: > 100 µM
[51]
  TGI: > 100 µM
[52]
  TGI: > 100 µM
[53]
  TGI: > 100 µM

## Cc1ccc(C2C(C(=O)C(C)(C)C)N2S(=O)(=O)c2ccc(C)cc2)cc1 (configuration not stated)
[2]
  TGI: > 100 µM
[3]
  TGI: 59.1 µM
[4]
  TGI: 47.5 µM
[5]
  TGI: > 100 µM
[6]
  TGI: 75.3 µM
[7]
  TGI: 65.2 µM
[8]
  TGI: 53.6 µM
[9]
  TGI: 57.5 µM
[11]
  TGI: 96.2 µM
[12]
  TGI: 75.9 µM
[13]
  TGI: 55.1 µM
[14]
  TGI: 97.2 µM
[15]
  TGI: 40.6 µM
[16]
  TGI: 49.3 µM
[17]
  TGI: 30.7 µM
[18]
  TGI: 52 µM
[19]
  TGI: 37.5 µM
[20]
  TGI: 32.6 µM
[21]
  TGI: 62 µM
[22]
  TGI: 74.7 µM
[23]
  TGI: 48.5 µM
[24]
  TGI: 35.6 µM
[54]
  TGI: 28.9 µM
[25]
  TGI: 49.1 µM
[26]
  TGI: 65.3 µM
[27]
  TGI: 39.8 µM
[28]
  TGI: 51.9 µM
[29]
  TGI: 38.6 µM
[30]
  TGI: 46.5 µM
[31]
  TGI: 37 µM
[32]
  TGI: 64.2 µM
[33]
  TGI: 34.8 µM
[35]
  TGI: > 100 µM
[37]
  TGI: 94.6 µM
[39]
  TGI: 94.6 µM
[55]
  TGI: 69.6 µM
[40]
  TGI: 46.1 µM
[41]
  TGI: 42 µM
[56]
  TGI: 33.6 µM
[42]
  TGI: 34.6 µM
[44]
  TGI: 36.1 µM
[45]
  TGI: > 100 µM
[46]
  TGI: 78.1 µM
[47]
  TGI: 45.8 µM
[48]
  TGI: > 100 µM
[57]
  TGI: > 100 µM
[51]
  TGI: 35.4 µM
[52]
  TGI: 82.5 µM
[53]
  TGI: 62.3 µM
